Laboratory results from US9999611B2, “SIRT 1 activator including syringaresinol” (AMOREPACIFIC CORPORATION, priority 2011, dated 2018).

Tests used:
ADD1/SREBP1c, ACC, FAS = test: Expression of fatty acid synthesis-related genes (qRT-PCR); format: cell-based, human; details: 50 μM, vs DMSO control
Experimental: Human adipocytes, hepatocytes and myocytes were treated with 50 μM syringaresinol and washed with PBS in substantially the same manner as in Test Example 3. RNA was extracted from the cells and cDNA was synthesized therefrom. The change in expression pattern of fatty acid synthesis-related genes such as ADD1/SREBP1c, ACC, FAS, etc. and fatty acid oxidation-related genes such as ACO, CPT1, mCAD, etc. was measured by qRT-PCR.

SIRT1 = SIRT1 expression promoting effect in human PBMCs (qRT-PCR); format: cell-based; details: human PBMCs, 20, 50 or 100 μM, 24 hours; FIG. 17
Experimental: The SIRT1 gene expression promoting effect of syringaresinol in human PBMCs was evaluated as follows.
Human PBMCs were purchased from Zen-Bio (Research Triangle Park, N.C., USA) and cultured in a 5% CO2 incubator using a PBMC medium (Zen-Bio) until 80% confluency. Then, the cells were treated for 24 hours with syringaresinol dissolved in DMSO to a concentration of 20, 50 or 100 μM. A negative control group was treated with DMSO corresponding to 1/1000 of the volume of the culture medium. The cells treated with each sample were washed with PBS and RNA was extracted therefrom using the TRIzol reagent (Invitrogen). Then, cDNA was synthesized from the extracted RNA (5 μg) using a reverse transcription system (Fermentas, Glen Burnie, Md., USA). The expression pattern of the SIRT1 and GAPDH genes was monitored by qRT-PCR using the synthesized cDNA and predesigned primers and probes. qRT-PCR reaction and analysis were carried out using the Rotor-Gene 3000 system (Corbett Research, Sydney, Australia).

human PBMCs [1] = test: Reactive oxygen species production inhibiting effect in LPS-treated human PBMCs (H2-DCFDA); format: cell-based; details: human PBMCs pretreated with 20, 50 or 100 μM, then 10 ng/mL LPS; compared to cells treated only with LPS; FIG. 18
Experimental: After pretreating human PBMCs with 20, 50 or 100 μM syringaresinol in substantially the same manner as in Test Example 10, followed by washing with PBS, inflammatory response was induced by treating with 10 ng/mL lipopolysaccharide (LPS). After treating the cells with H2-DCFDA (Invitrogen), which is a fluorescent substance capable of detecting reactive oxygen species, the amount of fluorescent substance was measured using a multiplate reader (Infinite M200; Tecan, Mannedorf, Switzerland).

human PBMCs [2] = test: Human PBMC migration and deposition onto 3T3-L1 adipocytes (TNF-induced); format: cell-based; details: human PBMCs, 20, 50 or 100 μM, 10 ng/mL TNF, differentiated 3T3-L1 adipocytes, 48 hours; FIG. 20
Experimental: After treating human PBMCs with 20, 50 or 100 μM syringaresinol or DMSO in substantially the same manner as in Test Example 11, inflammatory response was induced by treating with 10 ng/mL TNF. After treating differentiated 3T3-L1 adipocytes (Zen-Bio) with the PBMCs, it was investigated whether the PBMCs migrate onto the adipocytes and deposit. 48 hours later, after removing the PBMCs remaining without migrating, the cells were detached from a culture dish using trypsin/EDTA and then counted using a cell counter.

COc1cc(C2OCC3C(c4cc(OC)c(O)c(OC)c4)OCC23)cc(OC)c1O (stereo not drawn) [syringaresinol]
expression of fatty acid synthesis-inducing genes (ADD1/SREBP1c, ACC, FAS; human adipocytes, FIG. 5): suppressed the expression of fatty acid synthesis-inducing genes | expression of fatty acid synthesis-inducing genes (ADD1/SREBP1c, ACC, FAS; human hepatocytes, FIG. 6): suppressed the expression of fatty acid synthesis-inducing genes | expression of fatty acid synthesis-inducing genes (ADD1/SREBP1c, ACC, FAS; human myocytes, FIG. 7): suppressed the expression of fatty acid synthesis-inducing genes | SIRT1 expression (SIRT1): increased SIRT1 expression in PBMCs in a concentration-dependent manner | decreased reactive oxygen species production (human PBMCs [1]): about 60% | inhibition of migration and deposition of PBMCs onto adipocytes (human PBMCs [2]): about 50%
